Where two headings read alike, the source gives them in different places.
Key:
[1] = molecular target: EGFR del19/T790M/C797S (Homo sapiens, UniProt P00533, C797S/DEL746-750/T790M); assay: Biochemical EGFR kinase assay (Lance Ultra TR-FRET), triple mutant del19/T790M/C797S
How it was run: (§1)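 Enzyme reactions lasted 1 hour at room temperature with test compounds between 0.003 and 10 μM, followed by 10 mM EDTA quench.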

[2] = molecular target: EGFR L858R/T790M/C797S (Homo sapiens, UniProt P00533, C797S/L858R/T790M); assay: Biochemical EGFR kinase assay (Lance Ultra TR-FRET), triple mutant L858R/T790M/C797S
How it was run: as §1

[3] = molecular target: EGFR del19/C797S (Homo sapiens, UniProt P00533, C797S/DEL746-750); assay: Biochemical EGFR kinase assay (Lance Ultra TR-FRET), double mutant del19/C797S
How it was run: as §1

[4] = molecular target: EGFR L858R/C797S (Homo sapiens, UniProt P00533, C797S/L858R); assay: Biochemical EGFR kinase assay (Lance Ultra TR-FRET), double mutant L858R/C797S
How it was run: as §1

[5] = molecular target: EGFR wildtype (WT) (Homo sapiens, UniProt P00533); assay: Biochemical EGFR kinase assay (Lance Ultra TR-FRET), wildtype
How it was run: as §1

[6] = IC50 del19/T790M/C797S (nM) 100 μM ATP, 100 μM ATP
[7] = IC50 L858R/T790M/C797S (nM) 100 μM ATP, 100 μM ATP
[8] = IC50 del19/C797S (nM) 100 μM ATP, 100 μM ATP
[9] = IC50 L858R/C797S (nM) 100 μM ATP, 100 μM ATP
[10] = IC50 WT (nM) 100 μM ATP, 100 μM ATP
[11] = Km ATP, read-out: IC50 del19/T790M/C797S (nM) Km ATP
[12] = Km ATP, read-out: IC50 L858R/T790M/C797S (nM) Km ATP
[13] = Km ATP, read-out: IC50 del19/C797S (nM) Km ATP
[14] = Km ATP, read-out: IC50 L858R/C797S (nM) Km ATP
[15] = Km ATP, read-out: IC50 WT (nM) Km ATP
[16] = Km ATP, read-out: IC50 del19/T790M/C797S, Km ATP
[17] = Km ATP, read-out: IC50 L858R/T790M/C797S, Km ATP
[18] = Km ATP, read-out: IC50 del19/C797S, Km ATP
[19] = Km ATP, read-out: IC50 L858R/C797S, Km ATP
[20] = Km ATP, read-out: IC50 WT, Km ATP

Chain of EGFR del19/T790M/C797S (P00533 with tags, fused parts or gaps DEL746-750/T790M/C797S): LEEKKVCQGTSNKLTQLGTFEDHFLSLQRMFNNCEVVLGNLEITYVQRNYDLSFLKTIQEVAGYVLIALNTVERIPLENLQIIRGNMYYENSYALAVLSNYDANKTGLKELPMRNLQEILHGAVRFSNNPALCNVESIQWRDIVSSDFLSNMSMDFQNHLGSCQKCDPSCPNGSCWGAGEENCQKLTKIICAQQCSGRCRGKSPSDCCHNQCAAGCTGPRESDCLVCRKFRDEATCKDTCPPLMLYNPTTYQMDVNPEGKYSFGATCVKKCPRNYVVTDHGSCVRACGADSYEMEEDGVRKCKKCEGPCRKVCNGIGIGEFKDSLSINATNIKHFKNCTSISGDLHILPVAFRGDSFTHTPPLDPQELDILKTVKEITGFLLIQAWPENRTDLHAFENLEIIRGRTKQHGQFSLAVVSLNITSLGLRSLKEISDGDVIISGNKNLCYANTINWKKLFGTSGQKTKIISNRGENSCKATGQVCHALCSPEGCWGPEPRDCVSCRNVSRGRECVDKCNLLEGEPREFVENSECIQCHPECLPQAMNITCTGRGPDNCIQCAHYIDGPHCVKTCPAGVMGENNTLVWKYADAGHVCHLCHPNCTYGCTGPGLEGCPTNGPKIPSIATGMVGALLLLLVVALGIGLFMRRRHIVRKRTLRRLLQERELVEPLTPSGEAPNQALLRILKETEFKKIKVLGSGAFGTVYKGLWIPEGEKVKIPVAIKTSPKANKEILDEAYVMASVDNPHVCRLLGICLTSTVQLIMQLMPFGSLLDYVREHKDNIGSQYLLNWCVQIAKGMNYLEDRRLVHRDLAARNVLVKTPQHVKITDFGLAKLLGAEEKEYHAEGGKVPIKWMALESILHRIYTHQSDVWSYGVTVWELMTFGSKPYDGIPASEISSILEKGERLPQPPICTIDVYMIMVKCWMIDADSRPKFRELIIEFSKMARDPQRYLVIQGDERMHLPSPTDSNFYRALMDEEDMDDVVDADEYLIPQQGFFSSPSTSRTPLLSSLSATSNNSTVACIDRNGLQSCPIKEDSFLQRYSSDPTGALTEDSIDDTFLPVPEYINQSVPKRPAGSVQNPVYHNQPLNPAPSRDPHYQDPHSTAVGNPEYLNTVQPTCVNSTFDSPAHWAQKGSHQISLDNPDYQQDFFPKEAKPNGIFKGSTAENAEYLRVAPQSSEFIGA
Chain of EGFR L858R/C797S (P00533 25-1210 C797S/L858R): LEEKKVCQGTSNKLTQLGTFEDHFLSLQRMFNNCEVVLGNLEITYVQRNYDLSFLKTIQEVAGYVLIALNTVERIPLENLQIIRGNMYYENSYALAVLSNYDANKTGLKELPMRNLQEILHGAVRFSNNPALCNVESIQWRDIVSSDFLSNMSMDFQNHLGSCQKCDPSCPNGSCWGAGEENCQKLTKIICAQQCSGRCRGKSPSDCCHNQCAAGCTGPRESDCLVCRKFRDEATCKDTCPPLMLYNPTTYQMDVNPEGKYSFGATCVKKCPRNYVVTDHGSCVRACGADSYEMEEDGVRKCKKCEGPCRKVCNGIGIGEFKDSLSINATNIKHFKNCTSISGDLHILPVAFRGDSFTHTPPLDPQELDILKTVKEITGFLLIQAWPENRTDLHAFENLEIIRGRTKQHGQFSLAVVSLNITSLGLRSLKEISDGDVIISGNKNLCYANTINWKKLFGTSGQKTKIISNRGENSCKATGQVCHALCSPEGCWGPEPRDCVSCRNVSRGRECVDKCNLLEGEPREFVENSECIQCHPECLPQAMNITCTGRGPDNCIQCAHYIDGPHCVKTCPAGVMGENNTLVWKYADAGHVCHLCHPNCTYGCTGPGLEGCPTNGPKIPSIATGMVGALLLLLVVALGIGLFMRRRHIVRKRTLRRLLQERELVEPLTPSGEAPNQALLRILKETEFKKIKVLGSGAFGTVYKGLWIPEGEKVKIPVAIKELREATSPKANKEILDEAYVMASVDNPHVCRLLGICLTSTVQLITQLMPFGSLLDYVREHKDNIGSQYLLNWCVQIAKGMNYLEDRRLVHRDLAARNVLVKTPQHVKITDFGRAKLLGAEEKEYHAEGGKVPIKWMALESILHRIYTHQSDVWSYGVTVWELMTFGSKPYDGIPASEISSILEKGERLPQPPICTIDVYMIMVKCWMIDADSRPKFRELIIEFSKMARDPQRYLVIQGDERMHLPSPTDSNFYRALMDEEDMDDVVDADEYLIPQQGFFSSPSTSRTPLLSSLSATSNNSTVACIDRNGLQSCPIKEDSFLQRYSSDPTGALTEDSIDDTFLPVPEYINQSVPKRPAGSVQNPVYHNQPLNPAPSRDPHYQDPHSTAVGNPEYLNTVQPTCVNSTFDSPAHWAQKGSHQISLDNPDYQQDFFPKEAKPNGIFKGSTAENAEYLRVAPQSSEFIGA
Chain of EGFR del19/C797S (P00533 with tags, fused parts or gaps DEL746-750/C797S): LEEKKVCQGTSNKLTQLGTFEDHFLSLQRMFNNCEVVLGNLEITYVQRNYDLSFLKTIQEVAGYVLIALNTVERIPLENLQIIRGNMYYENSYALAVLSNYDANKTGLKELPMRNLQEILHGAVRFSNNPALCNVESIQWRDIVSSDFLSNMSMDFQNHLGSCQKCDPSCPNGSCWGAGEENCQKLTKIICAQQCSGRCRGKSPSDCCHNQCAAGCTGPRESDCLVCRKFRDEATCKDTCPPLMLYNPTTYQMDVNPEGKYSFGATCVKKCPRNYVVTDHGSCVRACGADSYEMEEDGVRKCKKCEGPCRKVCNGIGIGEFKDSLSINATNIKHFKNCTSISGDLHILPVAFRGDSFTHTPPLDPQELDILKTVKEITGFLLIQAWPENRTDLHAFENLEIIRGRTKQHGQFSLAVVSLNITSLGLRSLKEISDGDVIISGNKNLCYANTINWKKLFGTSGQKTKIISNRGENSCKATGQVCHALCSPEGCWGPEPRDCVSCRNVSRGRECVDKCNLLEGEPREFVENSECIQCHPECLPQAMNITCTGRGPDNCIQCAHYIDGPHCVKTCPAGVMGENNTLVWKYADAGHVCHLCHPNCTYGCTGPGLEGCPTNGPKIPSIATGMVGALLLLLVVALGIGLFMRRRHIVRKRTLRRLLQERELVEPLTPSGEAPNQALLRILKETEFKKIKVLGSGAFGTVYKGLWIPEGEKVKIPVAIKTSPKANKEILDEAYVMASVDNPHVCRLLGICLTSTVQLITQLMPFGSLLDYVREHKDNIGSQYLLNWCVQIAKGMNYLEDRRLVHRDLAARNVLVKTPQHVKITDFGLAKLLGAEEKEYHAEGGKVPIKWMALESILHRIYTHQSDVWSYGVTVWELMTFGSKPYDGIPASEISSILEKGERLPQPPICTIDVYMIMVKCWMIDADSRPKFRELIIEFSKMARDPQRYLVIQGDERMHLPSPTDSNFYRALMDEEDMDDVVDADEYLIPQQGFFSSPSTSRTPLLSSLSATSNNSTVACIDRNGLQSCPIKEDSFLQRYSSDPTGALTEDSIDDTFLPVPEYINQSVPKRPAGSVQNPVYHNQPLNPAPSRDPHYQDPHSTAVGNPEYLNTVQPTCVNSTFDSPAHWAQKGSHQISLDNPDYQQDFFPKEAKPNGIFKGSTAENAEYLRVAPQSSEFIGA
Chain of EGFR L858R/T790M/C797S (P00533 25-1210 T790M/C797S/L858R): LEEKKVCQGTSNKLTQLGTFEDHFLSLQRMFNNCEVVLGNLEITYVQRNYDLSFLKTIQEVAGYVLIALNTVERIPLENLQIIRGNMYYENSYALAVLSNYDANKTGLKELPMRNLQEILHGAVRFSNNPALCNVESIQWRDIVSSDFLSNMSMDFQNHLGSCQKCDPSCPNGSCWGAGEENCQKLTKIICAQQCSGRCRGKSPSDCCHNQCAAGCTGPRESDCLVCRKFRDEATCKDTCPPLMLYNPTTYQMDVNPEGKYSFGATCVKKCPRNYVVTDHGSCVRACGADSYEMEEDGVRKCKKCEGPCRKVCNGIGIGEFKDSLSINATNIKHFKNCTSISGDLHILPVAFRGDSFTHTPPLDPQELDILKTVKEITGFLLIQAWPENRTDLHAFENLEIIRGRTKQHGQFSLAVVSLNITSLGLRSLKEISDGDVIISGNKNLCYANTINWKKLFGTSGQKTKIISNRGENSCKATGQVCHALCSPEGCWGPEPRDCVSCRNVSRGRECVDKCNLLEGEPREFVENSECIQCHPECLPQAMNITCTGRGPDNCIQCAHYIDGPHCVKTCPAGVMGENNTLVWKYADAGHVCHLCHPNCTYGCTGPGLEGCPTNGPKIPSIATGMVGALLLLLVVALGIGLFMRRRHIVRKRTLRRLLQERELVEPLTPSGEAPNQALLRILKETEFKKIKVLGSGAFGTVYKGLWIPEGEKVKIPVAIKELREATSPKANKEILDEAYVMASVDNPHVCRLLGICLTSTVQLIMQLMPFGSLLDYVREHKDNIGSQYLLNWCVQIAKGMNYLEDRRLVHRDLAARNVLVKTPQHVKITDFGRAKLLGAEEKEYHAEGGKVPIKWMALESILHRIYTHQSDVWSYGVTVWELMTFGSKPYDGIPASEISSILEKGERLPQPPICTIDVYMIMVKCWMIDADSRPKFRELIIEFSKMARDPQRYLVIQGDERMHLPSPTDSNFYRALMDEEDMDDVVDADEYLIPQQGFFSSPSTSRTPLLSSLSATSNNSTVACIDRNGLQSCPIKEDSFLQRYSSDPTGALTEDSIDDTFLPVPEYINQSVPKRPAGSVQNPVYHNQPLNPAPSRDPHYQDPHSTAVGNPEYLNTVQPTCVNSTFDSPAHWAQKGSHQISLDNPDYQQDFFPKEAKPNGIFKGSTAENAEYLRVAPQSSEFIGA

SMILES | IC50 [1, 6] | IC50 [2, 7] | IC50 [3, 8] | IC50 [4, 9] | IC50 [5, 10] | IC50 [1, 11] | IC50 [2, 12] | IC50 [3, 13] | IC50 [4, 14] | IC50 [5, 15] | other results
O=S(=O)(C1CC1)n1cc(-c2nccc(Nc3cc(N[C@H]4CC[C@H](CO)OC4)c(-c4ccn(C(F)F)n4)cn3)n2)cn1 [Example 196, ((2R,5S)-5-((2-((2-(1-(Cyclopropylsulfonyl)-1H-pyrazol-4-yl)pyrimidin-4-yl)amino)-5-(1-(difluoromethyl)-1H-pyrazol-3-yl)pyridin-4-yl)amino)tetrahydro-2H-pyran-2-yl)methanol] | 3.7 nM | 13.3 nM | 131 nM | 9100 nM | > 10000 nM | – | – | – | – | – | –
FC(F)Cn1cc(-c2nccc(Nc3cc(N[C@H]4CC[C@@H](F)CC4)c(-c4ccn(C(F)F)n4)cn3)n2)cn1 [Example 161, N^2-(2-(1-(2,2-Difluoroethyl)-1H-pyrazol-4-yl)pyrimidin-4-yl)-5-(1-(difluoromethyl)-1H-pyrazol-3-yl)-N^4-((1s,4s)-4-fluorocyclohexyl)pyridine-2,4-diamine] | – | – | – | – | – | 3.2 nM | 2.4 nM | 276 nM | 60.6 nM | 640 nM | –
C[C@]1(O)CC[C@@H](Nc2cc(Nc3ccnc(-c4cnn(CC(F)F)c4)n3)ncc2-c2ccn(CC(F)F)n2)CC1 [Example 343, (1s,4s)-4-((5-(1-(2,2-Difluoroethyl)-1H-pyrazol-3-yl)-2-((2-(1-(2,2-difluoroethyl)-1H-pyrazol-4-yl)pyrimidin-4-yl)amino)pyridin-4-yl)amino)-1-methylcyclohexan-1-ol] | – | – | – | – | – | – | – | – | – | – | IC50 [1, 16]: 0.1 nM; IC50 [2, 17]: 0.2 nM; IC50 [3, 18]: 4.7 nM; IC50 [4, 19]: 0.3 nM; IC50 [5, 20]: 35.3 nM
O=S(=O)(C1CC1)n1cc(-c2nccc(Nc3cc(N[C@H]4CC[C@](O)(CO)CC4)c(-c4cc5n(n4)CCCC5)cn3)n2)cn1 [Example 275, (1s,4s)-4-((2-((2-(1-(Cyclopropylsulfonyl)-1H-pyrazol-4-yl)pyrimidin-4-yl)amino)-5-(4,5,6,7-tetrahydropyrazolo[1,5-a]pyridin-2-yl)pyridin-4-yl)amino)-1-(hydroxymethyl)cyclohexan-1-ol] | 0.6 nM | 0.5 nM | 0.6 nM | 4.7 nM | 2940 nM | 0.4 nM | 0.2 nM | 0.4 nM | 0.4 nM | 1.8 nM | –
Cn1nc(-c2cnc(Nc3ccnc(-c4cnn(CC(F)F)c4)c3)nc2N[C@H]2CC[C@@](C)(O)CC2)cc1C(F)(F)F [Example 361, (1s,4s)-4-((2-((2-(1-(2,2-Difluoroethyl)-1H-pyrazol-4-yl)pyridin-4-yl)amino)-5-(1-methyl-5-(trifluoromethyl)-1H-pyrazol-3-yl)pyrimidin-4-yl)amino)-1-methylcyclohexan-1-ol] | – | – | – | – | – | – | – | – | – | – | IC50 [1, 16]: 0.5 nM; IC50 [2, 17]: 1.1 nM; IC50 [3, 18]: 14.2 nM; IC50 [4, 19]: 20 nM; IC50 [5, 20]: 685 nM
C[C@]1(O)CC[C@@H](Nc2cc(Nc3ccnc(-c4cnn(CC(F)(F)F)c4)n3)ncc2-c2ccn(CC(F)F)n2)CC1 [Example 344, (1s,4s)-4-((5-(1-(2,2-Difluoroethyl)-1H-pyrazol-3-yl)-2-((2-(1-(2,2,2-trifluoroethyl)-1H-pyrazol-4-yl)pyrimidin-4-yl)amino)pyridin-4-yl)amino)-1-methylcyclohexan-1-ol] | – | – | – | – | – | – | – | – | – | – | IC50 [1, 16]: 0.4 nM; IC50 [2, 17]: 0.4 nM; IC50 [3, 18]: 29.5 nM; IC50 [4, 19]: 0.2 nM; IC50 [5, 20]: 58.6 nM
O=S(=O)(C1CC1)n1cc(-c2ncc(F)c(Nc3cc(N[C@H]4CC[C@@H](CN5CCC5)CC4)c(-c4ccn(C(F)F)n4)cn3)n2)cn1 [Example 327, N^4-((1s,4s)-4-(Azetidin-1-ylmethyl)cyclohexyl)-N^2-(2-(1-(cyclopropylsulfonyl)-1H-pyrazol-4-yl)-5-fluoropyrimidin-4-yl)-5-(1-(difluoromethyl)-1H-pyrazol-3-yl)pyridine-2,4-diamine] | – | – | – | – | – | 0.4 nM | 0.2 nM | 1.7 nM | 2.8 nM | 6.5 nM | –
O=S(=O)(C1CC1)n1cc(-c2nccc(Nc3cc(N[C@H]4CC[C@@H](NCC(F)F)CC4)c(-c4ccn(C(F)F)n4)cn3)n2)cn1 [Example 23, N^2-(2-(1-(Cyclopropylsulfonyl)-1H-pyrazol-4-yl)pyrimidin-4-yl)-N^4-((1s,4s)-4-((2,2-difluoroethyl)amino)cyclohexyl)-5-(1-(difluoromethyl)-1H-pyrazol-3-yl)pyridine-2,4-diamine] | 1.3 nM | 1 nM | 0.9 nM | 7.4 nM | > 10000 nM | 0.7 nM | 0.4 nM | 0.8 nM | 1.8 nM | 6.9 nM | –
CC(O)C(C)(C)Nc1cc(Nc2ccnc(-c3cnn(S(=O)(=O)C4CC4)c3)n2)ncc1-c1ccn(C)n1 (centres unmarked) [Example 95, 3-((2-((2-(1-(Cyclopropylsulfonyl)-1H-pyrazol-4-yl)pyrimidin-4-yl)amino)-5-(1-methyl-1H-pyrazol-3-yl)pyridin-4-yl)amino)-3-methylbutan-2-ol] | 1.3 nM | 1.9 nM | 57.7 nM | 45.2 nM | > 10000 nM | – | – | – | – | – | –

Second part, led by results:

IC50 [1, 6] | IC50 [2, 7] | IC50 [3, 8] | IC50 [4, 9] | IC50 [5, 10] | IC50 [1, 11] | IC50 [2, 12] | IC50 [3, 13] | IC50 [4, 14] | IC50 [5, 15] | SMILES | other results
0.3 nM | 0.2 nM | 16.8 nM | 53.6 nM | > 10000 nM | 0.5 nM | 0.1 nM | 5.5 nM | 2.2 nM | 12.1 nM | CN(C)S(=O)(=O)n1cc(-c2nccc(Nc3cc(N[C@H]4CC[C@@](C)(O)CC4)c(-c4ccn(C(F)F)n4)cn3)n2)cn1 [Example 317, 4-(4-((5-(1-(Difluoromethyl)-1H-pyrazol-3-yl)-4-(((1s,4s)-4-hydroxy-4-methylcyclohexyl)amino)pyridin-2-yl)amino)pyrimidin-2-yl)-N,N-dimethyl-1H-pyrazole-1-sulfonamide] | –
– | – | – | – | – | 0.4 nM | 0.2 nM | 1 nM | 0.1 nM | 0.9 nM | COCn1ccc(-c2cnc(Nc3ccnc(-c4cnn(S(=O)(=O)C5CC5)c4)n3)cc2N[C@H]2CC[C@@](C)(O)CC2)n1 [Example 294, (1s,4s)-4-((2-((2-(1-(Cyclopropylsulfonyl)-1H-pyrazol-4-yl)pyrimidin-4-yl)amino)-5-(1-(methoxymethyl)-1H-pyrazol-3-yl)pyridin-4-yl)amino)-1-methylcyclohexan-1-ol] | –
– | – | – | – | – | 30.9 nM | 9.7 nM | 125 nM | 55.7 nM | 408 nM | O=S(=O)(C1CC1)n1cc(-c2nccc(Nc3cc(N[C@H]4CC[C@@H](C(F)F)CC4)c(-c4ccn(C(F)F)n4)cn3)n2)cn1 [Example 157, N^2-(2-(1-(Cyclopropylsulfonyl)-1H-pyrazol-4-yl)pyrimidin-4-yl)-5-(1-(difluoromethyl)-1H-pyrazol-3-yl)-N^4-((1s,4s)-4-(difluoromethyl)cyclohexyl)pyridine-2,4-diamine] | –
3.8 nM | 29.9 nM | 343 nM | > 10000 nM | > 10000 nM | 4.4 nM | 4.9 nM | 460 nM | 42.9 nM | 5.5 nM | CCS(=O)(=O)n1ccc(-c2nccc(Nc3cc(N[C@H]4CC[C@@](C)(O)CC4)c(-c4ccn(C(F)F)n4)cn3)n2)n1 [Example 309, (1s,4s)-4-((5-(1-(Difluoromethyl)-1H-pyrazol-3-yl)-2-((2-(1-(ethylsulfonyl)-1H-pyrazol-3-yl)pyrimidin-4-yl)amino)pyridin-4-yl)amino)-1-methylcyclohexan-1-ol] | –
– | – | – | – | – | 1.2 nM | 0.5 nM | 34.5 nM | 34.9 nM | 220 nM | CS(=O)(=O)n1cc(-c2nccc(Nc3cc(N[C@H]4CC[C@@](C)(O)CC4)c(-c4ccn(C(F)F)n4)cn3)n2)cn1 [Example 112, (1s,4s)-4-((5-(1-(Difluoromethyl)-1H-pyrazol-3-yl)-2-((2-(1-(methylsulfonyl)-1H-pyrazol-4-yl)pyrimidin-4-yl)amino)pyridin-4-yl)amino)-1-methylcyclohexan-1-ol] | IC50 ([1]; read-out: IC50 del19/T790M/C797S (nM) 100 μM ATP, 100 μM ATP): 2.1 nM; IC50 ([2]; read-out: IC50 L858R/T790M/C797S (nM) 100 μM ATP, 100 μM ATP): 4.9 nM; IC50 ([3]; read-out: IC50 del19/C797S (nM) 100 μM ATP, 100 μM ATP): 75.4 nM; IC50 ([4]; read-out: IC50 L858R/C797S (nM) 100 μM ATP, 100 μM ATP): 60.7 nM; IC50 ([5]; read-out: IC50 WT (nM) 100 μM ATP, 100 μM ATP): > 10000 nM

Source: patent US12258327B2, “5-membered heteroaryl-containing aminopyridine compounds as EGFR inhibitors” (YUHAN CORPORATION, priority 2021, dated 2025)
